Reference: patent publication US20130005660A1, “Plasma Activation of Biological Materials for Surface Modification” (ORTHOBOND, INC., priority 2011, published 2013)

Assay: Stability of gentamicin in 0.25M HCl under autoclave conditions
Assay type: physicochemical

In the case of gentamicin, the stability of gentamicin is reported as “No significant loss of gentamicin detection”.
